Several values for one entry are separate records, joined by “and”; a condition that tells them apart may be missing. Equal values may be shown once. Read-outs that look alike come from different tables or passages of the source.
What was measured:
CXCR3 = target: T1, CXCR3 (Homo sapiens, UniProt P49682); experiment: Cellular functional assay CXCR3
T1 sequence (P49682 1-368): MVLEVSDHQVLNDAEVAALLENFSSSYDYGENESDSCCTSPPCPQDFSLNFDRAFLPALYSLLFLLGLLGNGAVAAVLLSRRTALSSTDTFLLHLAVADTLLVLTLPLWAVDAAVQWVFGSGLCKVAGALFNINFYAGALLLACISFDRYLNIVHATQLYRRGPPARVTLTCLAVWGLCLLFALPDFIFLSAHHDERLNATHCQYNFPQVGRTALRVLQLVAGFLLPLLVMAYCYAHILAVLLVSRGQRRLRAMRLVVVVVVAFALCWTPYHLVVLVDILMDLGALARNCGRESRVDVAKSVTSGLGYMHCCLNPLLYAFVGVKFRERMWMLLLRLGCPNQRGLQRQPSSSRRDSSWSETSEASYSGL

ADR2 = target: T2, ADR2 (Homo sapiens, UniProt P07550); experiment: Binding assay ADR2 (reference ICI 118551); details: 100 nM
T2 construct: Eurofins Cerep (external service)
T2 sequence (P07550 whole entry): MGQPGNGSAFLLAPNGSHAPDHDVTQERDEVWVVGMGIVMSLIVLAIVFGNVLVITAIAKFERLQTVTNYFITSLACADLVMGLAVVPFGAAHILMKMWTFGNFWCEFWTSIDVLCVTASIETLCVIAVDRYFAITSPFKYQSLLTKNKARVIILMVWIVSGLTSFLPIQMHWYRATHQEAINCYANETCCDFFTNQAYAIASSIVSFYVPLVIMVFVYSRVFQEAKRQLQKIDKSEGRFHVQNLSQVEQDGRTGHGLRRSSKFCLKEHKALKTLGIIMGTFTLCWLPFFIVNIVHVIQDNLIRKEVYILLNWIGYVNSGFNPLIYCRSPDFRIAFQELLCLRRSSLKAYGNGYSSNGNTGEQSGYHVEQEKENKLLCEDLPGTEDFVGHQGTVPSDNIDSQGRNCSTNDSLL

mGluR1 = target: T3, mGluR1 (Homo sapiens, UniProt Q13255); experiment: Binding assay mGluR1; details: 100 nM
T3 construct: Eurofins Cerep (external service)
T3 sequence (Q13255 19-1194): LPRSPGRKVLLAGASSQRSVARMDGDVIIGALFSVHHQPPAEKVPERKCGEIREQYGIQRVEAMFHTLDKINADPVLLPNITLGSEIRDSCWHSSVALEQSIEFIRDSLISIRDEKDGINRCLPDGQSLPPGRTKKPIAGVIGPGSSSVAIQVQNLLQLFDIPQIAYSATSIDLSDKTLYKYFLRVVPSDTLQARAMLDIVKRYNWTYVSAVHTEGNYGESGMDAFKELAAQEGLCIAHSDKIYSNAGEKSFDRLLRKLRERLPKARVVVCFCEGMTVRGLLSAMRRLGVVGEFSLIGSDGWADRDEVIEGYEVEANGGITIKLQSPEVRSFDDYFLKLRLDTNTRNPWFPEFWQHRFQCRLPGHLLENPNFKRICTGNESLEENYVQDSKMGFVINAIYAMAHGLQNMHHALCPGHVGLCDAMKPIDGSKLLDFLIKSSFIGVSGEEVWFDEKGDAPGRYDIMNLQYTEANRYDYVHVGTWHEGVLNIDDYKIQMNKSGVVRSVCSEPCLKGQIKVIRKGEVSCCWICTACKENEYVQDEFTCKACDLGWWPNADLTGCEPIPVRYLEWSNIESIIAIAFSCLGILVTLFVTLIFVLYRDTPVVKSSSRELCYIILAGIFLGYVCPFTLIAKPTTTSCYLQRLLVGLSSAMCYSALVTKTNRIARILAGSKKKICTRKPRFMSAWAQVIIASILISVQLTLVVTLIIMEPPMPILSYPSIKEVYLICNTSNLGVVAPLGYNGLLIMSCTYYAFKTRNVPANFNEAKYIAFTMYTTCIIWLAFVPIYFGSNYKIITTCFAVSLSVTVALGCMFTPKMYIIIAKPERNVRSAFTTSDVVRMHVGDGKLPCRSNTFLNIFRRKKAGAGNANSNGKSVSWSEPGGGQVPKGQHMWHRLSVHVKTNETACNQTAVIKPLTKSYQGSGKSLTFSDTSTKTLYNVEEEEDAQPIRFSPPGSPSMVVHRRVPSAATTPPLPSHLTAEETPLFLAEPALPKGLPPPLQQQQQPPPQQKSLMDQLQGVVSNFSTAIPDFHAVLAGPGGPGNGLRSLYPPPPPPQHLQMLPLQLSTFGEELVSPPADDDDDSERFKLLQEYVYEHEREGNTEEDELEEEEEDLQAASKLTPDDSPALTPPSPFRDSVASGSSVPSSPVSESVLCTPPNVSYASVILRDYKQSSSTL

[1] = Single dose time course study in plasma and brain, 10 mg/kg subcutaneous; assay type: in vivo, mouse; details: 10 mg/kg s.c. single dose, C57BL/6 male mice
Description: Afterwards, the presence of the top compound in the brain was assessed in a single dose time course study consisting of a subcutaneous administration of a 10 mg/kg dose (15% Ethanol, 85% PEG400) to 24 naïve C57BL/6 male mice. Eight time-points (n = 3/time-point) were drawn over 24 hours after dosing. Each animal was sampled for blood collection at two time-points (the first via a tail vein, the second via cardiac puncture under anaesthesia). Blood samples were collected and centrifuged to prepare plasma according to standard procedures and stored at approximately -20°C, pending analysis (n = 48 samples). The brain of each animal was collected at sacrifice and analysed alongside plasma samples for compound quantification (n = 24 samples). Plasma and brain homogenate samples were analysed for test compound quantification using an optimised method based on protein precipitation followed by HPLC-MS/MS analysis. The results for test substance in plasma and brain homogenates were subjected to non-compartmental PK analysis using WinNonlin Phoenix v.6.3 for generation of appropriate pharmacokinetic parameters to be reported along with graphical representation of the mean plasma concentration profiles over time.

CCR6 = target: T4, CCR6 (Homo sapiens, UniProt P51684); experiment: Cellular functional assay CCR6
T4 sequence (P51684 1-374): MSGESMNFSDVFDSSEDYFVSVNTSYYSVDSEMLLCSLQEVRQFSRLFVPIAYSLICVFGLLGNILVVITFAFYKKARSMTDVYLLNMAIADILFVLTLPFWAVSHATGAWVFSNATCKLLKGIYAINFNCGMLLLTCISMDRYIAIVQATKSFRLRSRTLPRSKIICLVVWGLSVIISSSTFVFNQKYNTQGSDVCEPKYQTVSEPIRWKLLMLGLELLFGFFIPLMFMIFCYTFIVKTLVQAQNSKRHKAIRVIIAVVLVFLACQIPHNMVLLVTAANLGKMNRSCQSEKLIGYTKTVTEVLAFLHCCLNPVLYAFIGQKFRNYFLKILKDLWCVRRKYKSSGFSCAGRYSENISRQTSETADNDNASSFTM

CCR2 = target: T5, CCR2 (Homo sapiens, UniProt P41597); experiment: Binding assay CCR2; details: 100 nM
T5 construct: Eurofins Cerep (external service)
T5 sequence (P41597 whole entry): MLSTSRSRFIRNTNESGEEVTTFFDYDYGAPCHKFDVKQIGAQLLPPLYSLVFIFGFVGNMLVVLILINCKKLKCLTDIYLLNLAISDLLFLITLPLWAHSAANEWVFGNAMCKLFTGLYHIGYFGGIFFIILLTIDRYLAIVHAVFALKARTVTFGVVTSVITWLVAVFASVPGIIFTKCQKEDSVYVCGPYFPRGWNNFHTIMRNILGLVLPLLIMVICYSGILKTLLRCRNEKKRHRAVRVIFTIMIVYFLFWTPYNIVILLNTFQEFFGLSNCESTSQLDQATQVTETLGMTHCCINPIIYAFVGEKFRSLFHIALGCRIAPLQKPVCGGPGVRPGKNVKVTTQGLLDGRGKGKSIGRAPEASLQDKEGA

M4 = target: T6, M4 (Homo sapiens, UniProt P08173); experiment: Binding assay M4; details: 100 nM
T6 construct: Eurofins Cerep (external service)
T6 sequence (P08173 1-479): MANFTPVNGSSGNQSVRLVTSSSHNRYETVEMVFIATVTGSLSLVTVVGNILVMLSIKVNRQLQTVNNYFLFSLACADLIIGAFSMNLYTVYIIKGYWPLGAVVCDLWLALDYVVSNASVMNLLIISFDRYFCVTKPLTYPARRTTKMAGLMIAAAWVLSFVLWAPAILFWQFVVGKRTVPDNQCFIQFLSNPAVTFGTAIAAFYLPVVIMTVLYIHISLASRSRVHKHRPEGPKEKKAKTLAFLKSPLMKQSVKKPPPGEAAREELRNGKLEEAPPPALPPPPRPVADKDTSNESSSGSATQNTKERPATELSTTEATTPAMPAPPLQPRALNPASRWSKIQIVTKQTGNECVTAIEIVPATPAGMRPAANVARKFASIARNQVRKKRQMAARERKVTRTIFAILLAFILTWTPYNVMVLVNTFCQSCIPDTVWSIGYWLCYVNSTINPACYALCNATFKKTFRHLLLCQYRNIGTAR

ADR1 = target: T7, ADR1 (Homo sapiens, UniProt P08588); experiment: Binding assay ADR1 (reference atenolol); details: 100 nM
T7 construct: Eurofins Cerep (external service)
T7 sequence (P08588 whole entry): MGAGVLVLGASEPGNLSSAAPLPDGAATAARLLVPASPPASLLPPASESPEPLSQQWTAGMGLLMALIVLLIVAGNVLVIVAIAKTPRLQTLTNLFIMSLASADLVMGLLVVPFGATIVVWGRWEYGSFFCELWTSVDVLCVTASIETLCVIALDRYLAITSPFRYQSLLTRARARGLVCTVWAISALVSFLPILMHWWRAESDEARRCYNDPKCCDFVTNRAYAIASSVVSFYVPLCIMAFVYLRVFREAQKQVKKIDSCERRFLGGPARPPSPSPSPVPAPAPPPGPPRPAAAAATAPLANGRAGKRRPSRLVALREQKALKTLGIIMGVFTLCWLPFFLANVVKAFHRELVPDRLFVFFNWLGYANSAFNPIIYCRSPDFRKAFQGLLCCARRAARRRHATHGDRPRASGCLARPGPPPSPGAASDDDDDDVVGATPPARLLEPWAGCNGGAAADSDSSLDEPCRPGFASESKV

CCR4 = target: T8, CCR4 (Homo sapiens, UniProt P51679); experiment: Cellular functional assay CCR4
T8 sequence (P51679 1-360): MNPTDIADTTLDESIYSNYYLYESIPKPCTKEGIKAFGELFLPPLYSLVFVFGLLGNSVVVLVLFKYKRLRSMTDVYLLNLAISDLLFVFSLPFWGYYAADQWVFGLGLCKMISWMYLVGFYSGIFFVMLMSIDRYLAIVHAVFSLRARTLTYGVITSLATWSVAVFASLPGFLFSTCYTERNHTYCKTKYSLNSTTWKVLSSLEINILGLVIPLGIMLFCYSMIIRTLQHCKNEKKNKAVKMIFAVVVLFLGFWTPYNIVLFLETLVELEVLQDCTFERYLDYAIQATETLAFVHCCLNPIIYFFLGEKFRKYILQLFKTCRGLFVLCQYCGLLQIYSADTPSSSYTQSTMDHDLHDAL

[2] = antagonist effect, 100 nM, single replicates 1st and 2nd, 0.1 µM
[3] = read-out: % Inhibition of control agonist response
[4] = read-out: Agonist Response (% of Control), Mean, antagonist effect, 100 nM, mean of 2
[5] = read-out: Agonist Response (% of Control), antagonist effect, 100 nM, single replicates 1st and 2nd
[6] = mean of 2, read-out: % Of control specific binding, Mean
[7] = read-out: % Inhibition of control specific binding
[8] = single replicates 1 and 2, 0.1 µM
[9] = single replicates 1 and 2, read-out: % Of control specific binding

Agonist Response (% of Control) (CXCR3; [2]): 102.1% | inhibition at 0.1 µM (CXCR3; [3]): 0.3% | activity at 0.1 µM (CXCR3; [4]): 102% | activity at 0.1 µM (CXCR3; [5]): 103% | remaining activity at 0.1 µM (ADR2; [6]): 102% | inhibition at 0.1 µM (ADR2; [7]): -2% | % Of control specific binding (ADR2; [8]): 108.1% | remaining activity at 0.1 µM (ADR2; [9]): 95.8% | remaining activity at 0.1 µM (mGluR1; [6]): 114% | inhibition at 0.1 µM (mGluR1; [7]): -14% | % Of control specific binding (mGluR1; [8]): 103.5% and 124.2% | Tlast ([1]; brain): 6.00 h | AUC(0-t) ([1]; mouse, sc, brain): 205 ng·h/mL | Cmax ([1]; mouse, sc, brain): 270 ng/mL | Tmax ([1]; mouse, sc, brain): 15 min | concentration at 6 h ([1]; mouse, sc, brain, read-out: Clast): 5.8 ng/mL | AUC(0-t) ([1]; mouse, sc, plasma): 3930 ng·h/mL | Cmax ([1]; mouse, sc, plasma): 6520 ng/mL | Tmax ([1]; mouse, sc, plasma): 15 min | concentration at 8 h ([1]; mouse, sc, plasma, read-out: Clast): 17.4 ng/mL | Tlast ([1]; plasma): 8.00 h | Agonist Response (% of Control) (CCR6; [2]): 105.9% | inhibition at 0.1 µM (CCR6; [3]): -0.3% | activity at 0.1 µM (CCR6; [4]): 106% | activity at 0.1 µM (CCR6; [5]): 105% | remaining activity at 0.1 µM (CCR2; [6]): 88.4% | inhibition at 0.1 µM (CCR2; [7]): 12% | % Of control specific binding (CCR2; [8]): 88.9% | remaining activity at 0.1 µM (CCR2; [9]): 88% | remaining activity at 0.1 µM (M4; [6]): 95.4% | inhibition at 0.1 µM (M4; [7]): 5% | % Of control specific binding (M4; [8]): 95.1% | remaining activity at 0.1 µM (M4; [9]): 95.7% | remaining activity at 0.1 µM (ADR1; [6]): 91.5% | inhibition at 0.1 µM (ADR1; [7]): 9% | % Of control specific binding (ADR1; [8]): 88.9% | remaining activity at 0.1 µM (ADR1; [9]): 94% | Agonist Response (% of Control) (CCR4; [2]): 60.7% and 88.2% | inhibition at 0.1 µM (CCR4; [3]): -0.1% | activity at 0.1 µM (CCR4; [4]): 74.4%
Structure (SMILES): Cc1ccc(-c2nnc(SCC(=O)Nc3nccs3)[nH]2)cc1 [Compound 9]
